{
  "source": "paper PMC11141866",
  "about": "“Pyrimidine depletion enhances targeted and immune therapy combinations in acute myeloid leukemia” (JCI Insight, 2024)",
  "key": {"Dog DHODH": {"target": "Dog DHODH (Canis lupus familiaris, UniProt A0A8I3MWX2)", "sequence (A0A8I3MWX2 1-406)": "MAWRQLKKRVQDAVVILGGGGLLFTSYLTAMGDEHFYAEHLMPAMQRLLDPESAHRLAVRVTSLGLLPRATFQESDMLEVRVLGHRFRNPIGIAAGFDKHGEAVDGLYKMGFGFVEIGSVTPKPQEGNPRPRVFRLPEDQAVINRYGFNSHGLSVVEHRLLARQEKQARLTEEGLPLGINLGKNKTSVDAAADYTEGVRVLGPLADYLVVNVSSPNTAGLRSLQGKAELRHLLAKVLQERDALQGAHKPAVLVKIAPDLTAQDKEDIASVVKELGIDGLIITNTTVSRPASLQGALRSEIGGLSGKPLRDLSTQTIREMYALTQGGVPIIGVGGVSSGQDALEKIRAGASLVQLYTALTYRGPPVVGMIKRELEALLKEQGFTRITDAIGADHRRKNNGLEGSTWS", "test": "Cell-free multi-species DHODH enzyme inhibition assay, dog", "assay_type": "biochemical", "conditions": "n=1"}, "[1]": {"test": "HOSU-53 plasma exposure in MOLM-13 tumor-bearing mice", "assay_type": "in vivo, NCG mice", "conditions": "per mouse; for AUC: NCG, mouse, plasma, po, read-out: HOSU-53 AUCall", "experimental": "(§1) Male 8- to 12-week-old NCG mice were engrafted with 1 × 10^5 cells via tail vein i.v. injection. […] Figure 3B and Figure 4, A and B, share the same vehicle group. page 6: Plasma samples were obtained following appropriate dosing administration and saved in the -80°C freezer till the time of analysis. Analyses by LC-MS/MS followed sample extraction by protein precipitation and separation by Ultra Performance Liquid Chromatography (UPLC, Waters Corporation, MA, USA) using a C18 column, 1.7um, 2.1x50mm, Mobile Phase A: 5:95:0.1 (v:v:v) Acetonitrile:Water:Formic Acid, Mobile Phase B: 50:50:0.1 (v:v:v) Methanol:Acetonitrile:Formic Acid. MS/MS analyses were performed on an API-6500 (Absciex MA, USA) in positive mode using an electrospray source at 550°C. The internal standard was d4-AEA monitored at 352.2 and 66.0 m/z transitions and the target analyte, HOSU-53, was monitored at 416.5 and 331.1 m/z transitions. The assay was qualified between 10-5,000 ng/ml HOSU53 to be within ±20% for QCs above the LLOQ in this range and ±25% at the LLOQ. DHO concentration quantification in mouse plasma samples. Plasma samples were obtained following appropriate dosing administration and saved in the -80°C freezer till the time of analysis. Analyses by LC-MS/MS followed sample extraction by protein precipitation and separation by Ultra Performance Liquid Chromatography (UPLC, Waters Corporation, MA, USA) using a Phenomenex Aqua C18 100x4.6mm, 3uM, […], Mobile Phase A: 100:0.1 (v:v) Water:Formic Acid, Mobile Phase B: 100:0.1 (v:v) Methanol:Formic Acid. MS/MS analyses were performed on an API-4000 (Absciex MA, USA) in negative mode using an electrospray source at 550°C. The internal standard was labeled 13C14_L-Dihydroorotic Acid monitored at 161.3 and 117.1 m/z transitions and the target analyte, L-Dihydroorotic Acid (DHO), was monitored at 157.0 and 70.0 m/z transitions. The assay was qualified between 10.0-30,000 ng/ml DHO to be within ±20% for QCs above the LLOQ in this range and ±25% at the LLOQ."}, "plasma DHO": {"system": "plasma DHO", "test": "DHO plasma accumulation in MOLM-13 tumor-bearing mice", "assay_type": "in vivo, NCG mice", "design": "unit not given here", "conditions": "male mice, per mouse", "experimental": "as §1"}, "primary AML samples": {"system": "primary AML samples", "test": "Flow cytometry CD38 surface expression, primary AML samples", "assay_type": "cell-based, human", "conditions": "for CD38 MFI: 50nM", "experimental": "Cells were thawed in 50% FBS RPMI and then cultured in StemSpan (StemCell Technologies) media supplemented with human FLT3L, SCF, GM-CSF, G-CSF, IL-3, IL-6, TPO, and EPO cytokines for 7 days (LTC).\nAfter 72 hours or 7 days of treatment of DHODHi, cells were collected and washed with PBS, blocked with human Fc block (BioLegend), and stained with antibodies for 30 minutes on ice. Antibodies were washed off and cells resuspended in FACS buffer (2% FBS, 2 mM NaN3, Dulbecco’s PBS) for analysis using BD LSRFortessa or Cytek Aurora spectral flow cytometer. Live/dead exclusion was done using LIVE/DEAD Fixable Near-IR (Invitrogen). All antibodies were purchased from BioLegend except CD47, which was purchased from BD Biosciences: CD11b clone M1/70, CD38 clone HIT2, CD14 clone M5E2, CD47 clone B6H12, CD33 clone WM53, CD3 clone UCHT1, CD19 clone HIB19, and CD45 clone HI30."}, "CYP 1A2": {"target": "CYP 1A2 (Homo sapiens, UniProt P05177)", "sequence (P05177 whole entry)": "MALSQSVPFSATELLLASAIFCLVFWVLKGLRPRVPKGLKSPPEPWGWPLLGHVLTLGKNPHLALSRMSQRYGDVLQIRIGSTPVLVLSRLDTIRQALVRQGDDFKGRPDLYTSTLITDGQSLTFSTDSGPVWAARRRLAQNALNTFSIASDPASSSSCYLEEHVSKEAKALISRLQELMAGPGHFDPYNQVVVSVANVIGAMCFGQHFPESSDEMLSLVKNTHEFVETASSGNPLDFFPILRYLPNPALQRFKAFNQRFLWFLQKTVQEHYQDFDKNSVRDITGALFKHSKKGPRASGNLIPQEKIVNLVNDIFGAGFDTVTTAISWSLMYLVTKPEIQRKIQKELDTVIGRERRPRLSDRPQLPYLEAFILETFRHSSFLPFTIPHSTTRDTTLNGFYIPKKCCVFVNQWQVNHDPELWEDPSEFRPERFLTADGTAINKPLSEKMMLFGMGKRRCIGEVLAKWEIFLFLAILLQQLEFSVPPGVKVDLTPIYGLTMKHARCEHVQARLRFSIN", "test": "CYP inhibition 1A2", "assay_type": "in vitro ADME", "from_the_text": "(§2) Supplement jciinsight-9-173646-s083.xlsx, sheet \"Supplemental Table S.2.\" | column: HOSU-53"}, "In vivo p.o. PK in dog": {"test": "In vivo p.o. PK in dog", "conditions": "po", "from_the_text": "as §2"}},
  "note": "“And” between values parts separate entries of the source, which are not always exact repeats. Identical values can stand only once. Like-named read-outs stand apart in the source and are kept apart here.",
  "data": [
    {"compound": "CCCCOc1cccc(-c2ccc(-c3cc(C(=O)O)c4cc(F)ccc4n3)cc2)c1", "note": "[HOSU-53]", "values": [
      {"measurement": "IC50", "setting": "Dog DHODH", "result": 0.00125, "unit": "µM"},
      {"measurement": "HOSU-53 AUCall", "setting": "[1]; Day 1, 4 mpk PO, male mice, 4 mg/kg", "result": "915.984 µM·h and 1069.99 µM·h"},
      {"measurement": "HOSU-53 AUCall", "setting": "[1]; Day 1, 10 mpk PO, male mice, 10 mg/kg", "result": "1989.31 µM·h and 1940.99 µM·h"},
      {"measurement": "HOSU-53 AUCall", "setting": "[1]; Day 1, 20 mpk PO, male mice, 20 mg/kg", "result": "3244.97 µM·h and 3430.6 µM·h"},
      {"measurement": "HOSU-53 AUCall", "setting": "[1]; Day 1, 30 mpk PO, male mice, 30 mg/kg", "result": "5214.04 µM·h and 4142.06 µM·h"},
      {"measurement": "HOSU-53 AUCall", "setting": "[1]; Day 14, 4 mpk PO, male mice, 4 mg/kg", "result": "2230.22 µM·h and 2019.88 µM·h"},
      {"measurement": "HOSU-53 AUCall", "setting": "[1]; Day 14, 10 mpk PO, male mice, 10 mg/kg", "result": "3666.3 µM·h and 3989.64 µM·h"},
      {"measurement": "HOSU-53 AUCall", "setting": "[1]; Day 14, 20 mpk PO, male mice, 20 mg/kg", "result": "6180.8 µM·h and 5557.2 µM·h"},
      {"measurement": "HOSU-53 AUCall", "setting": "[1]; Day 14, 30 mpk PO, male mice, 30 mg/kg", "result": "7551.75 µM·h and 6154.9 µM·h"},
      {"measurement": "AUC", "setting": "[1]; female, 10 mg/kg, Day 1, 10 mpk PO, female mice", "result": 2830, "unit": "µM·h"},
      {"measurement": "AUC", "setting": "[1]; female, 10 mg/kg, Day 14, 10 mpk PO, female mice", "result": 3980, "unit": "µM·h"},
      {"measurement": "AUC", "setting": "[1]; male, 4 mg/kg, Day 1, 4 mpk PO, male mice", "result": 780, "unit": "µM·h"},
      {"measurement": "AUC", "setting": "[1]; male, 4 mg/kg, Day 14, 4 mpk PO, male mice", "result": 1930, "unit": "µM·h"},
      {"measurement": "AUC", "setting": "[1]; male, 10 mg/kg, Day 1, 10 mpk PO, male mice", "result": 1890, "unit": "µM·h"},
      {"measurement": "AUC", "setting": "[1]; male, 10 mg/kg, Day 14, 10 mpk PO, male mice", "result": 3860, "unit": "µM·h"},
      {"measurement": "AUC", "setting": "[1]; male, 20 mg/kg, Day 1, 20 mpk PO, male mice", "result": 3670, "unit": "µM·h"},
      {"measurement": "AUC", "setting": "[1]; male, 20 mg/kg, Day 14, 20 mpk PO, male mice", "result": 5090, "unit": "µM·h"},
      {"measurement": "AUC", "setting": "[1]; male, 30 mg/kg, Day 1, 30 mpk PO, male mice", "result": 4470, "unit": "µM·h"},
      {"measurement": "AUC", "setting": "[1]; male, 30 mg/kg, Day 14, 30 mpk PO, male mice", "result": 6660, "unit": "µM·h"},
      {"measurement": "DHO AUC (Figure 3C y value)", "setting": "plasma DHO; Day 1, 4 mpk PO, 4 mg/kg", "result": "21.3526 and 23.5341 and 32.163"},
      {"measurement": "DHO AUC (Figure 3C y value)", "setting": "plasma DHO; Day 1, 10 mpk PO, 10 mg/kg", "result": "124.368 and 142.962"},
      {"measurement": "DHO AUC (Figure 3C y value)", "setting": "plasma DHO; Day 1, 20 mpk PO, 20 mg/kg", "result": "335.03 and 368.431"},
      {"measurement": "DHO AUC (Figure 3C y value)", "setting": "plasma DHO; Day 1, 30 mpk PO, 30 mg/kg", "result": "473.057 and 298.48 and 280.181"},
      {"measurement": "DHO AUC (Figure 3C y value)", "setting": "plasma DHO; Day 14, 4 mpk PO, 4 mg/kg", "result": "78.3977 and 135.263 and 128.423"},
      {"measurement": "DHO AUC (Figure 3C y value)", "setting": "plasma DHO; Day 14, 10 mpk PO, 10 mg/kg", "result": "243.197 and 313.781 and 310.505"},
      {"measurement": "DHO AUC (Figure 3C y value)", "setting": "plasma DHO; Day 14, 20 mpk PO, 20 mg/kg", "result": "796.864 and 742.741 and 1170.82"},
      {"measurement": "DHO AUC (Figure 3C y value)", "setting": "plasma DHO; Day 14, 30 mpk PO, 30 mg/kg", "result": "464.129 and 594.047 and 535.223"},
      {"measurement": "CD38 MFI", "setting": "primary AML samples; Pt.12, DMSO 824.62", "result": 1062.2},
      {"measurement": "CD38 MFI", "setting": "primary AML samples; Pt.13, DMSO 803.93", "result": 707.33},
      {"measurement": "CD38 MFI", "setting": "primary AML samples; Pt.14, DMSO 15.61", "result": 21.18},
      {"measurement": "CD38 MFI", "setting": "primary AML samples; Pt.15, DMSO 168", "result": 782.96},
      {"measurement": "CD38 MFI", "setting": "primary AML samples; Pt.16, DMSO 274.9", "result": 277.67},
      {"measurement": "CD38 MFI", "setting": "primary AML samples; Pt.17, DMSO 1637.55", "result": 2440.33},
      {"measurement": "CD38 MFI", "setting": "primary AML samples; Pt.18, DMSO 74.26", "result": 85.51},
      {"measurement": "CD38 MFI", "setting": "primary AML samples; Pt.19, DMSO 997.1", "result": 2400.6},
      {"measurement": "CD38 MFI", "setting": "primary AML samples; Pt.20, DMSO 193.57", "result": 291.28},
      {"measurement": "CD38 MFI", "setting": "primary AML samples; Pt.2, DMSO 150.75", "result": 197},
      {"measurement": "CD38 surface expression", "setting": "primary AML samples; primary AML samples treated in vitro", "result": "variable increase"},
      {"measurement": "IC50", "setting": "CYP 1A2", "result": 19.6, "unit": "µM"},
      {"measurement": "bioavailability", "setting": "In vivo p.o. PK in dog; read-out: in vivo p.o. bioavailability (F)", "result": 47, "unit": "%"},
      {"measurement": "half-life", "setting": "In vivo p.o. PK in dog; read-out: in vivo p.o. t1/2 (converted)", "result": 8.4, "unit": "h"}
    ]}
  ]
}
